Measured values taken from PubChem BioAssay (NCI).
Where “and” joins values, the source holds several entries; their conditions need not be identical. Equal entries are not always repeated.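 Cells were grown in 96-well plates and exposed to each compound for 48 hours at five concentrations; endpoints were interpolated linearly between bracketing concentrations, or set to the highest concentration if not reached. GI50 marks 50% less growth. At the TGI there is no net growth.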

System: 786-0 renal
Test: inhibition of tumour cell growth, NCI panel, 48 h

Going from `O=C(O)c1ccc(C(=O)O)c2c(C(=O)O)ccc(C(=O)O)c12` to `O=C(/C=C/C=C/c1ccccc1)c1ccccc1`, the TGI falls from over 100 µM to 27.4 µM.

`O=S(=O)(Nc1ccc(Cl)cc1Cl)c1ccc(-c2cnc(C3CC3)o2)cc1` and `CCc1ccc(/C=C/c2ccc(O)c3ncccc23)[n+](C)c1` cannot be ordered by TGI: over 86.5 µM for the first, over 100 µM for the second.

Going from `S=c1[nH]c2c(Cl)c(Cl)c(Cl)c(Cl)c2[nH]1` to `Cc1ccc(Nc2oc(-c3ccccc3)nc2[P+](c2ccccc2)(c2ccccc2)c2ccccc2)cc1`, the TGI falls from 63.3 µM to 2.45 µM (26-fold).

Compared with `CSc1nc(NC2OC(COC(C)=O)C(OC(C)=O)C(OC(C)=O)C2OC(C)=O)c(N=CC=Nc2c(NC3OC(COC(C)=O)C(OC(C)=O)C(OC(C)=O)C3OC(C)=O)nc(SC)n(C)c2=O)c(=O)n1C` (centres undefined), `CCc1ccc(/C=C/c2ccc(O)c3ncccc23)[n+](C)c1` is higher in GI50: 16.7 µM for the first, over 100 µM for the second.

Going from `O=S(=O)(Nc1ccc(Cl)cc1Cl)c1ccc(-c2cnc(C3CC3)o2)cc1` to `Cc1ccc(Nc2oc(-c3ccccc3)nc2[P+](c2ccccc2)(c2ccccc2)c2ccccc2)cc1`, the GI50 rises from 0.615 µM to 1.1 µM (1.8-fold).

In the case of `CSc1nc(NC2OC(COC(C)=O)C(OC(C)=O)C(OC(C)=O)C2OC(C)=O)c(N=CC=Nc2c(NC3OC(COC(C)=O)C(OC(C)=O)C(OC(C)=O)C3OC(C)=O)nc(SC)n(C)c2=O)c(=O)n1C` (centres undefined), the TGI is reported as 50 µM and > 80.6 µM.

System: OVCAR-4 ovarian
Test: inhibition of tumour cell growth, NCI panel, 48 h

`CN(C)C/C=C/C(=O)Nc1cc2c(Nc3ccc(F)c(Cl)c3)ncnc2cc1O[C@H]1CCOC1` was tested, and the GI50 was 0.915 µM and 1.27 µM.

In the case of `CN(C)C/C=C/C(=O)Nc1cc2c(Nc3ccc(F)c(Cl)c3)ncnc2cc1O[C@H]1CCOC1`, the TGI is reported as 12.3 µM and > 10 µM.

Compared with `COc1cc(/C=C/C(=O)c2cccc(-n3cc(-c4ccc(Cl)cc4)[nH]c3=O)c2)ccc1O`, `O=C(Nc1cc(C(F)(F)F)ccc1Cl)c1cccc(NC2=C(Cl)C(=O)N(Cc3ccccc3)C2=O)c1` is higher in GI50: 3.11 µM for the first, over 100 µM for the second.

First: CCN(Cc1ccc(F)cc1)c1ccc(CO)c(Br)c1
Second: CCc1ccc(/C=C/c2ccc(O)c3ncccc23)[n+](C)c1
The GI50 of the first is 37-fold lower: 0.152 µM for the first, 5.6 µM for the second.

Compared with `Cc1ccc2c(C3C(C#N)=C(N)Oc4cc5ccccc5cc43)cc(=O)oc2c1` (centres undefined), `COC(=O)c1cc2c(s1)-c1nccc3c1c(nc1ccccc13)C2=O` is higher in GI50: 11.4 µM for the first, over 100 µM for the second.

Going from `Oc1ccc(Nc2c3ccccc3nc3occ(Cl)c23)cc1` to `Clc1nc(Cl)nc(Nc2cccc3ccccc23)n1`, the GI50 rises from 7.44 µM to over 100 µM.

Going from `CC1(Br)Cc2ccccc2C1=O` (centres undefined) to `CCOC(=O)/C=C/c1ccc(C#Cc2ccccc2)cc1`, the GI50 rises from 2.14 µM to 68.4 µM (32-fold).

Going from `CN(C)C(=S)Sc1ccc([N+](=O)[O-])cc1[N+](=O)[O-]` to `O=S(=O)(Nc1ccc(Cl)cc1Cl)c1ccc(-c2cnc(C3CC3)o2)cc1`, the GI50 rises from 1.61 µM to 3.72 µM (2.3-fold).

Compared with `O=[P@@]1(c2ccccc2)O[C@H](COCc2ccccc2)[C@@H](OCc2ccccc2)[C@H](OCc2ccccc2)[C@H]1NCc1ccccc1`, `Cc1ccc(Nc2oc(-c3ccccc3)nc2[P+](c2ccccc2)(c2ccccc2)c2ccccc2)cc1` is 9.7-fold lower in GI50: 3.47 µM for the first, 0.357 µM for the second.

First: COc1ccc(C(O)(CCC(C)C)C(CN2CCOCC2)c2ccc(Cl)cc2)cc1 (centres undefined)
Second: Cn1c(=O)c(Oc2ccc(F)cc2)cc2cnc(NC3CCOCC3)nc21
The GI50 of the first is lower: 12.1 µM for the first, over 25 µM for the second.

Going from `CC1(C)N=C(N)N=C(N)N1c1ccc(CCCCc2ccc(Cl)c(S(=O)(=O)F)c2)c(Cl)c1` to `CC(C)OC(=O)[C@H](C)NP(=O)(OC[C@H]1O[C@@H](n2ccc(=O)[nH]c2=O)[C@](C)(F)[C@@H]1O)Oc1ccccc1` (some centres undefined), the GI50 rises from 4.51 µM to over 100 µM.

Work on `CSc1nc(NC2OC(COC(C)=O)C(OC(C)=O)C(OC(C)=O)C2OC(C)=O)c(N=CC=Nc2c(NC3OC(COC(C)=O)C(OC(C)=O)C(OC(C)=O)C3OC(C)=O)nc(SC)n(C)c2=O)c(=O)n1C` (centres undefined) yielded a GI50 of over 50 µM.

`COc1cc(/C=C/C(=O)c2cccc(-n3cc(-c4ccc(Cl)cc4)[nH]c3=O)c2)ccc1O` and `O=C(Nc1cc(C(F)(F)F)ccc1Cl)c1cccc(NC2=C(Cl)C(=O)N(Cc3ccccc3)C2=O)c1` cannot be ordered by TGI: over 23.7 µM for the first, over 100 µM for the second.

Compared with `CCN(Cc1ccc(F)cc1)c1ccc(CO)c(Br)c1`, `CCc1ccc(/C=C/c2ccc(O)c3ncccc23)[n+](C)c1` is higher in TGI: 2.68 µM for the first, over 100 µM for the second.

`Cc1ccc2c(C3C(C#N)=C(N)Oc4cc5ccccc5cc43)cc(=O)oc2c1` (centres undefined) and `COC(=O)c1cc2c(s1)-c1nccc3c1c(nc1ccccc13)C2=O` cannot be ordered by TGI: over 100 µM for the first, over 100 µM for the second.

`Oc1ccc(Nc2c3ccccc3nc3occ(Cl)c23)cc1` and `Clc1nc(Cl)nc(Nc2cccc3ccccc23)n1` cannot be ordered by TGI: over 100 µM for the first, over 100 µM for the second.

Compared with `CC1(Br)Cc2ccccc2C1=O` (centres undefined), `CCOC(=O)/C=C/c1ccc(C#Cc2ccccc2)cc1` is higher in TGI: 8.43 µM for the first, over 100 µM for the second.

Compared with `CN(C)C(=S)Sc1ccc([N+](=O)[O-])cc1[N+](=O)[O-]`, `C=COC(=O)N[C@H]1CCc2cc(OC)c(OC)c(OC)c2-c2ccc(SC)c(=O)cc21` is 6.7-fold higher in TGI: 13.9 µM for the first, 92.9 µM for the second.

Going from `O=[P@@]1(c2ccccc2)O[C@H](COCc2ccccc2)[C@@H](OCc2ccccc2)[C@H](OCc2ccccc2)[C@H]1NCc1ccccc1` to `Cc1ccc(Nc2oc(-c3ccccc3)nc2[P+](c2ccccc2)(c2ccccc2)c2ccccc2)cc1`, the TGI falls from 48.9 µM to 2.07 µM (24-fold).

First: C[C@H]1CN[C@@H]2[C@@H](C)[C@H]3[C@@H](C[C@H]4[C@@H]5CC[C@H]6C[C@@H](N)CC[C@]6(C)[C@H]5CC[C@]34C)O[C@@]2(O)C1
Second: CSc1nc(NC2OC(COC(C)=O)C(OC(C)=O)C(OC(C)=O)C2OC(C)=O)c(N=CC=Nc2c(NC3OC(COC(C)=O)C(OC(C)=O)C(OC(C)=O)C3OC(C)=O)nc(SC)n(C)c2=O)c(=O)n1C (centres undefined)
The TGI of the first is lower: 17.5 µM for the first, over 100 µM for the second.

`COc1ccc(C(O)(CCC(C)C)C(CN2CCOCC2)c2ccc(Cl)cc2)cc1` (centres undefined) and `Cn1c(=O)c(Oc2ccc(F)cc2)cc2cnc(NC3CCOCC3)nc21` cannot be ordered by TGI: 27.4 µM for the first, over 25 µM for the second.

First: CC1(C)N=C(N)N=C(N)N1c1ccc(CCCCc2ccc(Cl)c(S(=O)(=O)F)c2)c(Cl)c1
Second: O=S(=O)(Nc1ccc(Cl)cc1Cl)c1ccc(-c2cnc(C3CC3)o2)cc1
The TGI of the first is lower: 49.7 µM for the first, over 100 µM for the second.

`Cc1cc2cc3c(=O)[nH]c(=O)[nH]c3nc2cc1C` and `CCc1c(Cl)c(C)cc(O)c1Cl` cannot be ordered by TGI: over 100 µM for the first, over 100 µM for the second.

Going from `CC(C)OC(=O)[C@H](C)NP(=O)(OC[C@H]1O[C@@H](n2ccc(=O)[nH]c2=O)[C@](C)(F)[C@@H]1O)Oc1ccccc1` (some centres undefined) to `O=C(/C=C/C=C/c1ccccc1)c1ccccc1`, the TGI falls from over 100 µM to 39.7 µM.

`CN(C)c1ncnc2c1ncn2CCn1cnc2c(N(C)C)ncnc21` and `O=C(O)c1ccc(C(=O)O)c2c(C(=O)O)ccc(C(=O)O)c12` cannot be ordered by TGI: over 100 µM for the first, over 100 µM for the second.

In the case of `S=c1[nH]c2c(Cl)c(Cl)c(Cl)c(Cl)c2[nH]1`, the TGI is reported as 22.6 µM.
